Results from patent US10011616B2, “Boron-containing small molecules as antiprotozoal1 agents” (MMV MEDICINES FOR MALARIA VENTURE, priority 2015, dated 2018).

What was measured:
[1] = system: 3D7 strain of Plasmodium falciparum; experiment: In vitro activity against 3D7 strain of Plasmodium falciparum ([3H]-hypoxanthine incorporation assay); type: cell-based; conditions: Erythrocyte, 48 h, P. falciparum 3D7 in human erythrocytes, 2 d, growth inhibition, read-out: IC50: 1 Org. Growth P. falciparum 3D7, 2 d (LPS_00570)
Experimental: In Vitro Activity Against Plasmodium falciparum a) Against 3D7 Strain of Plasmodium falciparum Inhibition of 3D7 strain parasites was assessed using the [^3H]-hypoxanthine incorporation assay (Desjardins, et al. Antimicrob. Agents Chemother. 1979, 16, 710-718). Briefly, parasites were cultured in human erythrocytes (from the Spanish Red Cross blood bank) using RPMI-1640 culture media (Gibco) supplemented with 0.5% Albumax II (Invitrogen), 2% D-sucrose (Sigma-Aldrich), 0.3% glutamine (Sigma-Aldrich), and 5 mM hypoxanthine (Sigma-Aldrich). Cultures were maintained at 37° C. at an atmosphere of 5% O2, 5% CO2, and […]. To assess inhibition, asynchronous parasite cultures with 0.5% parasitemia and 2% hematocrit were exposed to 3-fold serial dilutions of test compounds for 24 hours in 96 well plate cultures (Costar #3894). After 24 hours, [^3H]-hypoxanthine was added, plates were incubated for an additional 24 hours, and parasites were harvested on glass fiber filters (Wallac #1450-421) using a cell harvester 96 (TOMTEC, Perkin Elmer). Filters were dried on scintillator sheets (MeltiLex A, PerkinElmer #1450-441) to determine incorporation of [^3H]-hypoxanthine. Radioactivity was measured using a microbeta counter (Perkin Elmer). Data are normalized using the incorporation of the positive control (infected erythrocytes without drug). IC50 values were determined using Excel and Grafit 5 software. Values were determined from at least three independent experiments, and standard deviations were calculated.

[2] = system: W2 strain of Plasmodium falciparum; experiment: In vitro activity against W2 strain of Plasmodium falciparum (YOYO-1 flow cytometry); type: cell-based; conditions: Erythrocyte, 48 h, P. falciparum W2 in human erythrocytes, 2 d, growth inhibition, read-out: IC50: 1 Org. Growth P. falciparum W2, 2 d (LPS_00451)
Experimental: In Vitro Activity Against Plasmodium falciparum
b) Against W2 Strain of Plasmodium falciparum
W2 strain P. falciparum parasites were cultured in human erythrocytes and RPMI-1640 culture media with either 10% human serum or 0.5% Albumax serum substitute under 3% O2, 5% CO2, and 92% N2. Parasites synchronized to ring stage by treatments with 5% D-sorbitol were cultured with serial dilutions of benzoxaboroles from 5 to 10 mM stocks in 96 well microplate cultures including 200 μL of media/well, 2% hematocrit, and 1% parasitemia. At the completion of 48 h incubations, when untreated cultures contained new rings, parasites were fixed with 2% formaldehyde for 48 h, and 5 μL aliquots were transferred to another 96 well plate containing 150 μL/well of staining solution (100 mM NH4Cl, 0.1% Triton X-100, and 1 nM YOYO-1 in PBS). Parasites per erythrocyte were then determined by flow cytometry from plots of forward scatter against fluorescence (excitation 488 nm, emission 520 nm) using a FacSort flow cytometer (Beckton Dickinson) equipped with an AMS Loader (Cytek Development). All values were normalized to percent control activity, and IC50s were calculated using the Prism 3.0 program (GRAPHPAD Software). Goodness of fit was assessed by R^2 values, and meaningful dose-response curves yielded R^2 values >0.95.

Row | Compound | IC50 [1] | IC50 [2]
1 | Cc1c(Oc2cnc(C(=O)N[C@@H](CO)CC(F)(F)F)cn2)ccc2c1B(O)OC2 [Example 33, (R)-5-(1-hydroxy-7-methyl-1,3-dihydrobenzo[c][1,2]oxaborol-6-yloxy)-N-(4,4,4-trifluoro-1-hydroxybutan-2-yl)pyrazine-2-carboxamide] | 149 nM | 82.2 nM
2 | CCC[C@@H](NC(=O)c1cnc(Oc2ccc3c(c2C)B(O)OC3)cn1)C(C)(C)O [Example 43, (R)—N-(2-hydroxy-2-methylhexan-3-yl)-5-((1-hydroxy-7-methyl-1,3-dihydrobenzo[c][1,2]oxaborol-6-yl)oxy)pyrazine-2-carboxamide] | 553 nM | 260 nM
3 | CCC[C@H](CO)N(C)C(=O)c1cnc(Oc2ccc3c(c2C)B(O)OC3)cn1 [Example 52, (R)-5-(1-hydroxy-7-methyl-1,3-dihydrobenzo[c][1,2]oxaborol-6-yloxy)-N-(1-hydroxypentan-2-yl)-N-methylpyrazine-2-carboxamide] | 252 nM | 48.1 nM
4 | CCC(CO)NC(=O)c1cnc(Oc2ccc3c(c2C)B(O)OC3)cn1 (centres unmarked) [Example 18, 5-(1-hydroxy-7-methyl-1,3-dihydrobenzo[c][1,2]oxaborol-6-yloxy)-N-(1-hydroxybutan-2-yl)pyrazine-2-carboxamide] | 725 nM | 622 nM
5 | Cc1c(Oc2cnc(C(=O)N3CC(O)(C(C)C)C3)cn2)ccc2c1B(O)OC2 [Example 57, (3-hydroxy-3-isopropylazetidin-1-yl) (5-((1-hydroxy-7-methyl-1,3-dihydrobenzo[c][1,2]oxaborol-6-yl)oxy)pyrazin-2-yl)methanone] | 369 nM | 40.7 nM
6 | COC[C@H](CO)NC(=O)c1cnc(Oc2ccc3c(c2C)B(O)OC3)cn1 [Example 32, (S)—N-(1-hydroxy-3-methoxypropan-2-yl)-5-((1-hydroxy-7-methyl-1,3-dihydrobenzo[c][1,2]oxaborol-6-yl)oxy)pyrazine-2-carboxamide] | 796 nM | 512 nM
7 | Cc1c(Oc2cnc(C(=O)NC3(CO)CC3)cn2)ccc2c1B(O)OC2 [Example 17, 5-((1-hydroxy-7-methyl-1,3-dihydrobenzo[c][1,2]oxaborol-6-yl)oxy)-N-(1-(hydroxymethyl)cyclopropyl)pyrazine-2-carboxamide] | 1500 nM | 2010 nM
8 | Cc1c(Oc2cnc(C(=O)N[C@H](CO)C3CC3)cn2)ccc2c1B(O)OC2 [Example 31, (S)—N-(1-cyclopropyl-2-hydroxyethyl)-5-(1-hydroxy-7-methyl-1,3-dihydrobenzo[c][1,2]oxaborol-6-yloxy)pyrazine-2-carboxamide] | 1090 nM | 643 nM
9 | C=CC(CO)NC(=O)c1cnc(Oc2ccc3c(c2C)B(O)OC3)cn1 (centres unmarked) [Example 20, 5-(1-hydroxy-7-methyl-1,3-dihydrobenzo[c][1,2]oxaborol-6-yloxy)-N-(1-hydroxybut-3-en-2-yl)pyrazine-2-carboxamide] | 786 nM | 535 nM
10 | COCCNC(=O)c1cnc(Oc2ccc3c(c2C)B(O)OC3)cn1 [Example 2, 5-(1-hydroxy-7-methyl-1,3-dihydrobenzo[c][1,2]oxaborol-6-yloxy)-N-(2-methoxyethyl)pyrazine-2-carboxamide] | 644 nM | 788 nM
11 | CSC[C@H](CO)NC(=O)c1cnc(Oc2ccc3c(c2C)B(O)OC3)cn1 [Example 35, (S)—N-(1-hydroxy-3-(methylthio)propan-2-yl)-5-((1-hydroxy-7-methyl-1,3-dihydrobenzo[c][1,2]oxaborol-6-yl)oxy)pyrazine-2-carboxamide] | 73.7 nM | 370 nM
12 | CC[C@H](NC(=O)c1cnc(Oc2ccc3c(c2C)B(O)OC3)cn1)C(C)(C)O [Example 53, (S)—N-(2-hydroxy-2-methylpentan-3-yl)-5-(1-hydroxy-7-methyl-1,3-dihydrobenzo[c][1,2]oxaborol-6-yloxy)pyrazine-2-carboxamide] | 829 nM | 279 nM
13 | Cc1c(Oc2cnc(C(=O)N[C@@H]3CCC[C@H]3O)cn2)ccc2c1B(O)OC2 [Example 42, 5-((1-hydroxy-7-methyl-1,3-dihydrobenzo[c][1,2]oxaborol-6-yl)oxy)-N-((1R,2R)-2-hydroxycyclopentyl)pyrazine-2-carboxamide] | 245 nM | 133 nM
14 | Cc1c(Oc2cnc(C(=O)NC(C)CO)cn2)ccc2c1B(O)OC2 (centres unmarked) [Example 5, 5-(1-hydroxy-7-methyl-1,3-dihydrobenzo[c][1,2]oxaborol-6-yloxy)-N-(1-hydroxypropan-2-yl)pyrazine-2-carboxamide] | 317 nM | 92.3 nM
15 | CCC[C@@H](CO)NC(=O)c1cnc(Oc2ccc3c(c2C)B(O)OC3)cn1 [Example 13, (S)-5-(1-hydroxy-7-methyl-1,3-dihydrobenzo[c][1,2]oxaborol-6-yloxy)-N-(1-hydroxypentan-2-yl)pyrazine-2-carboxamide] | 715 nM | 297 nM
16 | CC[C@@H](CO)NC(=O)c1cnc(Oc2ccc3c(c2C)B(O)OC3)cn1 [Example 21, (S)-5-(1-hydroxy-7-methyl-1,3-dihydrobenzo[c][1,2]oxaborol-6-yloxy)-N-(1-hydroxybutan-2-yl)pyrazine-2-carboxamide] | 801 nM | 704 nM
17 | C=C[C@@H](CO)NC(=O)c1cnc(Oc2ccc3c(c2C)B(O)OC3)cn1 [Example 29, (S)-5-(1-hydroxy-7-methyl-1,3-dihydrobenzo[c][1,2]oxaborol-6-yloxy)-N-(1-hydroxybut-3-en-2-yl)pyrazine-2-carboxamide] | 764 nM | 828 nM
18 | Cc1c(Oc2cnc(C(=O)NC(CO)C3CC3)cn2)ccc2c1B(O)OC2 (centres unmarked) [Example 22, N-(1-cyclopropyl-2-hydroxyethyl)-5-(1-hydroxy-7-methyl-1,3-dihydrobenzo[c][1,2]oxaborol-6-yloxy)pyrazine-2-carboxamide] | 1150 nM | 458 nM
19 | Cc1c(Oc2cnc(C(=O)NC(CO)Cc3ccccc3)cn2)ccc2c1B(O)OC2 (centres unmarked) [Example 15, N-(1-hydroxy-3-phenylpropan-2-yl)-5-(1-hydroxy-7-methyl-1,3-dihydrobenzo[c][1,2]oxaborol-6-yloxy)pyrazine-2-carboxamide] | 407 nM | 297 nM
20 | Cc1c(Oc2cnc(C(=O)N[C@@H](CO)Cc3ccccc3)cn2)ccc2c1B(O)OC2 [Example 27, (R)—N-(1-hydroxy-3-phenylpropan-2-yl)-5-(1-hydroxy-7-methyl-1,3-dihydrobenzo[c][1,2]oxaborol-6-yloxy)pyrazine-2-carboxamide] | 505 nM | 115 nM
21 | Cc1c(Oc2cnc(C(=O)N[C@@H](CO)CS(C)(=O)=O)cn2)ccc2c1B(O)OC2 [Example 36, (S)—N-(1-hydroxy-3-(methylsulfonyl)propan-2-yl)-5-(1-hydroxy-7-methyl-1,3-dihydrobenzo[c][1,2]oxaborol-6-yloxy)pyrazine-2-carboxamide] | 472 nM | 201 nM
22 | Cc1c(Oc2cnc(C(=O)N[C@H](CO)CCC(F)(F)F)cn2)ccc2c1B(O)OC2 [Example 38, (S)-5-(1-hydroxy-7-methyl-1,3-dihydrobenzo[c][1,2]oxaborol-6-yloxy)-N-(5,5,5-trifluoro-1-hydroxypentan-2-yl)pyrazine-2-carboxamide] | 959 nM | 352 nM
23 | CC[C@H](CO)NC(=O)c1cnc(Oc2ccc3c(c2C)B(O)OC3)cn1 [Example 19, (R)-5-(1-hydroxy-7-methyl-1,3-dihydrobenzo[c][1,2]oxaborol-6-yloxy)-N-(1-hydroxybutan-2-yl)pyrazine-2-carboxamide] | 403 nM | 136 nM
24 | CCC[C@H](NC(=O)c1cnc(Oc2ccc3c(c2C)B(O)OC3)cn1)C(C)(C)O [Example 44, (S)—N-(2-hydroxy-2-methylhexan-3-yl)-5-(1-hydroxy-7-methyl-1,3-dihydrobenzo[c][1,2]oxaborol-6-yloxy)pyrazine-2-carboxamide] | 217 nM | 129 nM
25 | Cc1c(Oc2cnc(C(=O)N3CCC(C)(O)C3)cn2)ccc2c1B(O)OC2 (racemic) [Example 40, (3-hydroxy-3-methylpyrrolidin-1-yl) (5-((1-hydroxy-7-methyl-1,3-dihydrobenzo[c][1,2]oxaborol-6-yl)oxy)pyrazin-2-yl)methanone] | 314 nM | 139 nM
